The values that follow come from the Deep4Chem optical property database.

This data set can be described thus: solvent given as SMILES.

The structures appear in SMILES notation.

For the molecule `c1ccc(/C(=C(\c2ccccc2)c2cc(-c3ccc(-c4ccccc4)cc3)ccc2-c2ccc(-c3ccccc3)cc2)c2cc(-c3ccc(-c4ccccc4)cc3)ccc2-c2ccc(-c3ccccc3)cc2)cc1`, where the note is “in C1CCOC1”, the fluorescence lifetime came out at 8.2 ns.
`COc1ccc(-c2c3cc4cc(C)sc4cc3c(-c3ccc(OC)cc3)c3cc4cc(C)sc4cc23)cc1`: for the setting “in ClCCl”, the fluorescence lifetime was 9.7 ns.
With `COc1cc(OC)cc(-c2ccc(-c3ccc(C#N)s3)s2)c1`, the fluorescence lifetime amounted to 0.22 ns (in C1CCCCC1); 0.23 ns (in C1COCCO1); 0.24 ns (in CC#N); 0.23 ns (in CC(C)O); 0.24 ns (in CCCCO); 0.24 ns (in CCO). The fluorescence lifetime reads like this: (in CCOC(C)=O) 0.22 ns; (in CN(C)C=O) 0.28 ns; (in CO) 0.25 ns; (in CS(C)=O) 0.35 ns; (in Cc1ccccc1) 0.22 ns; (in ClC(Cl)Cl) 0.22 ns. Also, the fluorescence lifetime worked out at 0.23 ns (in ClCCl) and 1.02 ns (in O).
`Cc1ccc2ccc3c(C)ccc4ccc1c2c43` had a fluorescence lifetime (in CCCCCC) of 54.7 ns, a fluorescence lifetime (in CO) of 64.5 ns and a fluorescence lifetime (in ClCCl) of 37.6 ns.
For the molecule `CCOC(=O)c1ccccc1-c1c2ccc(=[N+](CC)CC)cc-2oc2cc(N(CC)CC)ccc12`, the fluorescence lifetime is, setting by setting: (in CC#N) 1.69 ns; (in CCO) 2.94 ns; (in CN(C)C=O) 2.16 ns; (in O) 1.74 ns.
In the case of `Cc1cccc2[n+]1[B-](F)(F)n1c(c3cccc4cccc1c43)=N2`, the fluorescence lifetime (in ClCCl) stood at 7.1 ns.
For the setting “in C1CCOC1”, `Cc1csc(C)c1C1=C(c2c(C)sc(-c3ccc(-c4nc(-c5ccccc5)c(-c5ccccc5)[nH]4)cc3)c2C)C(F)(F)C(F)(F)C1(F)F` came in with a fluorescence lifetime of 0.42 ns.
On to `CC(O)CC1=N/C(=C\c2cccc(N(C)C)c2)C(=O)N1C` (stereo unspecified), for which the fluorescence lifetime is, setting by setting: (in C1CCOC1) 13.2 ns; (in CC#N) 5.2 ns; (in CCCCCC) 18.9 ns.
For `COCCN1C(=O)/C(=C/c2cccc(N(C)C)c2)N=C1C` the same measures were 14.7 ns, 7.9 ns and 21.2 ns.
In the case of `CCn1c2ccccc2c2cc(C#Cc3cc(C#Cc4ccc5c(c4)c4ccccc4n5CC)nc(C#N)n3)ccc21`, the fluorescence lifetime (in C1CCOC1) is 4.26 ns.
`Cc1cc(C)c(C2=[N+]3C(=Cc4c(C)cc(C)n4[B-]3(F)F)c3ccccc32)[nH]1` had a fluorescence lifetime (in C1CCOC1) of 3.75 ns; a fluorescence lifetime (in CC#N) of 4.34 ns; a fluorescence lifetime (in CCCCCC) of 7.17 ns; a fluorescence lifetime (in CO) of 4.98 ns; a fluorescence lifetime (in Cc1ccccc1) of 6.14 ns; a fluorescence lifetime (in ClCCl) of 6.4 ns.
Where the note is “in ClC(Cl)Cl”, `c1ccc(-c2nc(-c3ccc(N4CCCC4)cc3)cc(-c3ccc4ccccc4c3)n2)cc1` displayed a fluorescence lifetime of 2.4 ns.
In the case of `O=Cc1cc2c(cc3ccc4cccc5ccc2c3c45)[nH]1`, the fluorescence lifetime (in CCOC(C)=O) worked out at 2.55 ns.
With `CC1=C(c2ccc(N(c3ccccc3)c3ccccc3)cc2)C(C)=[N+]2C1=C(c1c(-c3ccccn3)nc3ccccn13)c1c(C)c(-c3ccc(N(c4ccccc4)c4ccccc4)cc3)c(C)n1[B-]2(F)F`, the fluorescence lifetime (in ClCCl) turned out to be 0.3 ns.
Regarding `CC1(C)C(=O)C=Cc2ccc(O)cc21`, the fluorescence lifetime (in O) was 2.45 ns.
Consider `CCOC(=O)C(C(=O)OCC)C1=[N+]2C(=C(c3ccc(C)cc3)c3ccc(C(C(=O)OCC)C(=O)OCC)n3[B-]2(F)F)C=C1`, for which the fluorescence lifetime reads like this: (in C1CCCCC1) 3.15 ns; (in C1CCOC1) 2.82 ns; (in CCOC(C)=O) 2.5 ns; (in CO) 2.18 ns; (in Cc1ccccc1) 4.14 ns; (in ClC(Cl)Cl) 3.62 ns.
`C#Cc1ccc2ccc3cccc4ccc1c2c34`: the fluorescence lifetime reads like this: (in C1CCCCC1) 14.9 ns; (in CC#N) 13.4 ns; (in CO) 17.8 ns; (in ClCCl) 20.5 ns.
Under “in CC#N”, `COc1ccc(-c2nc(-c3ccc(-c4nc(-c5ccc(OC)cc5)c(-c5ccc(OC)cc5)[nH]4)s3)[nH]c2-c2ccc(OC)cc2)cc1` had a fluorescence lifetime of 1.42 ns.
For `Cc1ccc(C2=Cc3ccc4ccccc4[n+]3[B-](F)(F)O2)cc1`, the fluorescence lifetime (in ClC(Cl)Cl) worked out at 1.79 ns.
Turning to `CCCCCCCCCCCCN1C(=O)c2c(c3ccc4cc(-c5ccc(N(C)C)cc5)c(OC)cc4c3c3c2ccc2cc(-c4ccc(N(C)C)cc4)c(OC)cc23)C1=O`, the fluorescence lifetime (in ClCCl) came out at 5.85 ns.
In the case of `Cc1cc(-c2ccccc2)nc2c1ccc1nc(-c3ccccc3)cn12`, the fluorescence lifetime by setting is: (in CC#N) 6.97 ns; (in CCCCOC(C)=O) 6.04 ns; (in CCOC(C)=O) 5.98 ns; (in CO) 5.18 ns; (in c1ccccc1) 5.55 ns.
In turn, `CCN(CC)c1ccc2cc(/C=C3\CCCc4c3[o+]c3cc(N(CC)CC)ccc3c4-c3ccccc3C(=O)O)c(=O)oc2c1` displayed a fluorescence lifetime (in ClCCl) of 0.36 ns.
Where the note is “in O”, `COc1cc(N2CCOCCOCCN(c3cc(OC)c(NC(=O)c4ccc(-c5c6cc(Cl)c(=O)cc-6oc6cc([O-])c(Cl)cc56)c(C(=O)[O-])c4)cc3OC)CCOCC2)c(OC)cc1NC(=O)c1ccc(-c2c3cc(Cl)c(=O)cc-3oc3cc([O-])c(Cl)cc23)c(C(=O)[O-])c1` returned a fluorescence lifetime of 1.13 ns.
As to `Cc1ccc(C2=C3C=C(I)C=[N+]3[B-](F)(F)n3cccc32)cc1`, the fluorescence lifetime came out at 0.184 ns (in C1CCCCC1); 0.06 ns (in CC#N); 0.07 ns (in CCO); 0.082 ns (in CCOC(C)=O); 0.063 ns (in CO); 0.069 ns (in OCC(F)(F)F).
For the molecule `CCOc1cc2c(cc1/C=C/C(=C(C#N)C#N)c1ccccc1)c1ccccc1n2CC`, the fluorescence lifetime runs as follows: (in C1CCOC1) 5.66 ns; (in CC#N) 5.72 ns; (in CCO) 5.24 ns; (in CCOC(C)=O) 5.19 ns; (in CN(C)C=O) 5.41 ns; (in CS(C)=O) 7.08 ns. Moreover, the fluorescence lifetime turned out to be 6.76 ns (in Cc1ccccc1), 7.78 ns (in ClC(Cl)Cl) and 5.13 ns (in ClCCl).
On to `COc1ccc(C2=CC(c3ccc4ccccc4c3)=[O+][B-](C(C)=O)(C(C)=O)O2)cc1`, for which the fluorescence lifetime (in CC#N) is 3 ns and the fluorescence lifetime (in ClC(Cl)(Cl)Cl) was 1.2 ns.
For the molecule `c1ccc(-c2nc(-c3ccc(-c4cccs4)s3)[nH]c2-c2ccccc2)cc1`, the fluorescence lifetime (in CC#N) is 0.86 ns.
Molecule `CCCCn1c(-c2ccc(-c3nnc(-c4ccccc4)o3)cc2)nc(-c2ccccc2)c1-c1ccccc1` registered a fluorescence lifetime (in ClCCl) of 1.76 ns.
With `CN1C(=CC2=C([O-])C(=CC3=[N+](C)c4ccc(Cl)cc4C3(C)C)C2=O)C(C)(C)c2cc(Cl)ccc21`, the fluorescence lifetime runs as follows: (in CO) 0.21 ns; (in ClC(Cl)Cl) 1.42 ns.
On to `Nc1ccccn1`, for which the fluorescence lifetime reads like this: (in C1CCCCC1) 24.2 ns; (in CC#N) 5 ns; (in CCO) 5.1 ns; (in CCOCC) 10.8 ns; (in O) 24.4 ns.
On to `Clc1ncc(-c2c3ccccc3c(-c3cnc(Cl)nc3)c3ccccc23)cn1`, for which the fluorescence lifetime (in CCO) came to 2.1 ns and the fluorescence lifetime (in ClCCl) came to 6.2 ns.
The molecule `C=Cc1cc(OC)cc(OC)c1` came in with a fluorescence lifetime (in C1CCCCC1) of 3.8 ns and a fluorescence lifetime (in CC#N) of 6.9 ns.
For `Cc1ccc(C)n1-c1ccccc1`, under “in CC#N”, the fluorescence lifetime worked out at 5 ns.
Under “in CCCCCC”, `COC(=O)c1c(C(=O)OC)c2ccc(-c3ccccc3)nn2c1C` came in with a fluorescence lifetime of 21 ns.
As to `Cc1ccc2sc3cc(CCC(=O)O)ccc3c(=O)c2c1`, the fluorescence lifetime is, setting by setting: (in CC#N) 0.07 ns; (in CC(C)O) 1.3 ns; (in CCO) 1.7 ns; (in CO) 2.55 ns; (in OCCO) 4.6 ns.
In turn, `c1ccc(-c2nc(-c3ccccc3)nc(-c3cc(-n4c5ccccc5c5ncccc54)c(-n4c5ccccc5c5ccccc54)c(-n4c5ccccc5c5ncccc54)c3)n2)cc1` came in with a fluorescence lifetime (in O=P(c1ccccc1)(c1ccccc1)c1ccccc1Oc1ccccc1P(=O)(c1ccccc1)c1ccccc1) of 6 ns.
On to `Cc1ccc2c(c1)C(c1ccccc1)(c1ccccc1)c1cc(C)ccc1N2c1ccc2c(c1)Oc1ccccc1B2c1c(C(C)C)cc(C(C)C)cc1C(C)C`, for which the fluorescence lifetime amounted to 23 ns (in Cc1ccccc1) and 28 ns (in O=P(c1ccccc1)(c1ccccc1)c1ccc2oc3ccc(P(=O)(c4ccccc4)c4ccccc4)cc3c2c1).
As to `CCN(CC)c1ccc2c(-c3ccccc3C(=O)O)c3c([o+]c2c1)/C(=C/Nc1ccccc1)CCC3`, the fluorescence lifetime runs as follows: (in CCO) 5.19 ns; (in ClC(Cl)Cl) 3.16 ns; (in ClCCl) 5.8 ns.
As for `CC(C)(C)c1ccc2c(c1)c1cc(C(C)(C)C)ccc1n2-c1cc(C(=O)c2ccccn2)cc(-n2c3ccc(C(C)(C)C)cc3c3cc(C(C)(C)C)ccc32)c1`, the fluorescence lifetime (in c1cc(-c2cccc(-n3c4ccccc4c4ccccc43)c2)cc(-n2c3ccccc3c3ccccc32)c1) is 5.3 ns.
As for `COc1ccc2cc([C@H](C)C(=O)O)ccc2c1`, the fluorescence lifetime is 11 ns (in C1CCOC1); 9.96 ns (in CC#N); 10.8 ns (in CC(C)O); 11.4 ns (in CCCCO); 10.4 ns (in CCO); 8.48 ns (in CO). Moreover, the fluorescence lifetime reads like this: (in ClCCl) 6.93 ns; (in O) 9.6 ns.
`CC(C)(C)c1ccc(-c2nc3c4ccc(-c5ccccc5)cc4c4cc(-c5ccccc5)ccc4c3n2-c2ccc(C(C)(C)C)cc2)cc1` displayed a fluorescence lifetime (in ClCCl) of 10.1 ns.
In the case of `NS(=O)(=O)c1ccc(N2N=C(c3ccc(O)cc3)CC2c2ccccc2)cc1` (stereo unspecified), the fluorescence lifetime by setting is: (in C1CCOC1) 2.31 ns; (in C1COCCO1) 2.36 ns; (in CC#N) 2.38 ns; (in CC(C)O) 1.86 ns; (in CCO) 1.93 ns; (in CCOC(C)=O) 2.27 ns. Also, the fluorescence lifetime reads like this: (in CN(C)C=O) 2.4 ns; (in CO) 1.62 ns; (in CS(C)=O) 2.45 ns; (in O) 3.16 ns.
`COCCOCCOCCOCC(COCCOCCOCCOC)Oc1cc(/C=C/c2ccc(/C=C(\C#N)c3ccccc3)cc2)c(OC(COCCOCCOCCOC)COCCOCCOCCOC)cc1/C=C/c1ccc(/C=C(\C#N)c2ccccc2)cc1` had a fluorescence lifetime (in ClCCl) of 1.6 ns.
